Measurements taken from patent US8791303B2, “Herbicides” (Syngenta Limited, priority 2009, dated 2014).

Tests used:
Assay type in all cases: in vivo
[1] = tested on: Echinochloa crus-galli (ECHCG); test: Example A glasshouse herbicide test, post-emergence, ECHCG; conditions: Echinochloa crus-galli, post-emergence, 312 h, Rate 250 g/ha, sprayed after 8 days cultivation, evaluated after 13 days, read-out: Post-Emergence Activity ECHCG (100=total damage to plant; 0=no damage to plant)
Method: (§1) Seeds of a variety of test species are sown in standard soil in pots. After cultivation for one day (pre-emergence) or after 8 days cultivation (post-emergence) under controlled conditions in a glasshouse (at 24/16° C., day/night; 14 hours light; 65% humidity), the plants are sprayed with an aqueous spray solution derived from the formulation of the technical active ingredient in acetone/water (50:50) solution containing 0.5% Tween 20 (polyoxyethelyene sorbitan monolaurate, CAS RN 9005-64-5).
(§2) The test plants are then grown in a glasshouse under controlled conditions in a glasshouse (at 24/16° C., day/night; 14 hours light; 65% humidity) and watered twice daily. After 13 days for pre and post-emergence, the test is evaluated (100=total damage to plant; 0=no damage to plant).
(§3) Lolium perenne (LOLPE), Alopecurus myosuroides (ALOMY), Echinochloa crus-galli (ECHCG), Avena fatua (AVEFA)

[2] = tested on: Winter Wheat variety 'Hereward'; test: Example B crop damage test, post-emergence, wheat seed treated with safener cloquintocet mexyl; conditions: Rate 250 g/ha; post-emergence spray 8 days after sowing; seed treated with cloquintocet mexyl 0.5 g/kg dry seed; evaluated after 13 days
Method: Seeds of the Winter Wheat variety ‘Hereward’ were seed treated with a wettable powder formulation of the cereal herbicide safener, cloquintocet mexyl, at a rate of 0.5 grams per kilogram of dry seed prior to the initiation of glasshouse testing. One seed was sown per 1.5 inch plastic pot into a sandy loam soil at a depth of 1 cm, 8 days prior to application of the test compounds and was watered and grown under controlled conditions in a glasshouse (at 24/16° C., day/night; 14 hours light; 65% humidity). The plants were sprayed post-emergence with an aqueous spray solution derived from the formulation of the technical active ingredient in acetone/water (50:50) solution containing 0.5% Tween 20 (polyoxyethelyene sorbitan monolaurate, CAS RN 9005-64-5).
(§4) The test plants were then grown in a glasshouse under controlled conditions in a glasshouse (at 24/16° C., day/night; 14 hours light; 65% humidity) and watered twice daily. After 13 days for pre and post-emergence, the test was evaluated (100=total damage to plant; 0=no damage to plant).

Lolium perenne (LOLPE) [3] = test: Example A glasshouse herbicide test, pre-emergence, LOLPE; conditions: Lolium perenne, pre-emergence, 312 h, Rate 250 g/ha, sprayed after cultivation for one day, evaluated after 13 days, read-out: Pre-Emergence Activity LOLPE (100=total damage to plant; 0=no damage to plant)
Method: as §1, §2, §3

Avena fatua (AVEFA) [4] = test: Example A glasshouse herbicide test, post-emergence, AVEFA; conditions: Avena fatua, post-emergence, 312 h, Rate 250 g/ha, sprayed after 8 days cultivation, evaluated after 13 days, read-out: Post-Emergence Activity AVEFA (100=total damage to plant; 0=no damage to plant)
Method: as §1, §2, §3

[5] = tested on: Echinochloa crus-galli (ECHCG); test: Example A glasshouse herbicide test, pre-emergence, ECHCG; conditions: Echinochloa crus-galli, pre-emergence, 312 h, Rate 250 g/ha, sprayed after cultivation for one day, evaluated after 13 days, read-out: Pre-Emergence Activity ECHCG (100=total damage to plant; 0=no damage to plant)
Method: as §1, §2, §3

[6] = tested on: Alopecurus myosuroides (ALOMY); test: Example A glasshouse herbicide test, pre-emergence, ALOMY; conditions: Alopecurus myosuroides, pre-emergence, 312 h, Rate 250 g/ha, sprayed after cultivation for one day, evaluated after 13 days, read-out: Pre-Emergence Activity ALOMY (100=total damage to plant; 0=no damage to plant)
Method: as §1, §2, §3

[7] = tested on: Winter Wheat variety 'Hereward'; test: Example B crop damage test, post-emergence, unsafened wheat; conditions: Rate 250 g/ha; post-emergence spray after 8 days cultivation; no safener; evaluated after 13 days
Method: Seeds of the Winter Wheat variety ‘Hereward’ were sown in standard soil in pots. After 8 days cultivation under controlled conditions in a glasshouse (at 24/16° C., day/night; 14 hours light; 65% humidity), the plants were sprayed post-emergence with an aqueous spray solution derived from the formulation of the technical active ingredient in acetone/water (50:50) solution containing 0.5% Tween 20 (polyoxyethelyene sorbitan monolaurate, CAS RN 9005-64-5).
as §4

Lolium perenne (LOLPE) [8] = test: Example A glasshouse herbicide test, post-emergence, LOLPE; conditions: Lolium perenne, post-emergence, 312 h, Rate 250 g/ha, sprayed after 8 days cultivation, evaluated after 13 days, read-out: Post-Emergence Activity LOLPE (100=total damage to plant; 0=no damage to plant)
Method: as §1, §2, §3

Avena fatua (AVEFA) [9] = test: Example A glasshouse herbicide test, pre-emergence, AVEFA; conditions: Avena fatua, pre-emergence, 312 h, Rate 250 g/ha, sprayed after cultivation for one day, evaluated after 13 days, read-out: Pre-Emergence Activity AVEFA (100=total damage to plant; 0=no damage to plant)
Method: as §1, §2, §3

[10] = tested on: Alopecurus myosuroides (ALOMY); test: Example A glasshouse herbicide test, post-emergence, ALOMY; conditions: Alopecurus myosuroides, post-emergence, 312 h, Rate 250 g/ha, sprayed after 8 days cultivation, evaluated after 13 days, read-out: Post-Emergence Activity ALOMY (100=total damage to plant; 0=no damage to plant)
Method: as §1, §2, §3

Row | Compound | pest or weed control at 250 g/ha [1] [%] | Winter Wheat (Hereward) + cloquintocet mexyl damage (100=total damage to plant; 0=no damage to plant) [2] | pest or weed control at 250 g/ha (Lolium perenne (LOLPE) [3]) [%] | pest or weed control at 250 g/ha (Avena fatua (AVEFA) [4]) [%] | pest or weed control at 250 g/ha [5] [%] | pest or weed control at 250 g/ha [6] [%] | Winter Wheat (Hereward) damage (100=total damage to plant; 0=no damage to plant) [7] | pest or weed control at 250 g/ha (Lolium perenne (LOLPE) [8]) [%] | pest or weed control at 250 g/ha (Avena fatua (AVEFA) [9]) [%] | pest or weed control at 250 g/ha [10] [%]
1 | Cc1cc(C)c(C2C(=O)CC(CC3CCCCC3)C2=O)c(C)c1 (stereo not shown) [Compound A2] | 90 | 10 | 100 | 80 | 90 | 70 | 70 | 100 | 70 | 70
2 | Cc1cc(C)c(C2C(=O)CC(CC3CCCC3)C2=O)c(C)c1 (stereo not shown) [Compound A3] | 90 | 20 | 100 | 80 | 100 | 100 | 60 | 90 | 70 | 90
3 | Cc1cc(C)c(C2C(=O)C/C(=C\C3CCCC3)C2=O)c(C)c1 (stereo not shown) [Compound A4] | 90 | 0 | 100 | 70 | 100 | 100 | 60 | 60 | 70 | 70
4 | C=C(C)C1CCC(/C=C2\CC(=O)C(c3c(C)cc(C)cc3C)C2=O)CC1 (stereo not shown) [Compound A5] | 30 | 0 | 40 | 20 | 80 | 30 | 10 | 30 | 0 | 30
5 | Cc1cc(C)c(C2C(=O)CC(CC3CC(C)CCC3C)C2=O)c(C)c1 (stereo not shown) [Compound A6] | 80 | 0 | 100 | 60 | 90 | 50 | 10 | 80 | 50 | 80
6 | Cc1cc(Br)cc(C)c1C1C(=O)C/C(=C\C2CCCCC2)C1=O (stereo not shown) [Compound A7] | 80 | 0 | 60 | 40 | 50 | 40 | 20 | 30 | 20 | 50
7 | Cc1cc(C)c(C2C(=O)CC(CC3CCC(=NO)CC3)C2=O)c(C)c1 (stereo not shown) [Compound A8] | 50 | 10 | 90 | 90 | 90 | 60 | 30 | 100 | 40 | 70
8 | Cc1cccc(C)c1C1C(=O)CC(CC2CCCCC2)C1=O (stereo not shown) [Compound A10, 4-cyclohexylmethyl-2-(2,6-dimethyl-phenyl)-cyclopentane-1,3-dione] | 70 | 0 | 80 | 20 | 20 | 0 | 10 | 40 | 0 | 20
9 | Cc1cc(Br)cc(C)c1C1C(=O)CC(CC2CCCCC2)C1=O (stereo not shown) [Compound A11] | 20 | 0 | 20 | 0 | 0 | 0 | 0 | 50 | 0 | 10
10 | Cc1cc(C)c(C2C(=O)CC(CC3CCC3)C2=O)c(C)c1 (stereo not shown) [Compound A25] | 90 | 0 | 100 | 80 | 100 | 100 | 30 | 100 | 60 | 60
11 | Cc1cc(C)c(C2C(=O)C/C(=C\C3CCCCC3C)C2=O)c(C)c1 (stereo not shown) [Compound A26] | 70 | 20 | 100 | 50 | 100 | 90 | 40 | 90 | 90 | 60
12 | Cc1cc(C)c(C2C(=O)C/C(=C\C3CC3)C2=O)c(C)c1 (stereo not shown) [Compound A27, 4-[1-Cyclopropyl-methylidene]-2-(2,4,6-trimethyl-phenyl)-cyclopentane-1,3-dione] | 100 | 0 | 100 | 70 | 100 | 90 | 40 | 100 | 70 | 60
13 | Cc1cc(C)c(C2C(=O)CC(CC3CC3)C2=O)c(C)c1 (stereo not shown) [Compound A28, 4-Cyclopropylmethyl-2-(2,4,6-trimethyl-phenyl)-cyclopentane-1,3-dione] | 90 | 10 | 100 | 50 | 100 | 90 | 30 | 100 | 70 | 70
